Patent publication US6641840B2, “Sustained release formulations for growth hormone secretagogues” (Pfizer Inc., priority 2000, dated 2003)
Values joined by “and” are separate entries in the source; they are usually repeats but may differ in a detail not shown here. Equal entries are not always repeated. Where two headings read alike, the source gives them in different places.

Assays:
[1] = test system: insulin-like growth factor binding protein 3 (IGFBP-3); assay: Clinical study: IGFBP-3; format: in vivo, human; settings: first leg, immediate release dosing
From the text: (§1) (All dosage forms in this part of the study were immediate release dosage forms.)
(§2) The primary efficacy endpoint was the percentage change from baseline in IGF-1. Secondary outcomes included insulin-like growth factor binding protein 3 (IGFBP-3), cholesterol subfractions, and percent changes in total adipose and total lean tissue. Changes in each of the secondary efficacy measures over time were examined systematically either graphically or in tabular form and summarized using appropriate descriptive statistics as is well known in the art.

[2] = test system: growth hormone; assay: Simulated sustained release study (bolus vs divided oral solution): serum growth hormone; format: in vivo, human; settings: for GH Tmax: individual subjects 1-4
Experimental: This dosing regimen simulates active compound delivery by a sustained release dosage form. […] Serum concentrations of growth hormone were monitored just prior to administration of the first dose and every 20 minutes thereafter for 24 hours. Serum […] growth factor-I (IGF-I) concentrations were measured at 0, 12, and 24 hours post-first dose.
The order of treatment was defined by a randomization schedule. Following initial administration, subjects were readmitted to the clinical research facility approximately 14 days later. During the second evaluation, the subject received the treatment not used during the previous session.
Growth hormone serum concentrations were determined following administration of the bolus or divided doses. Blood samples, adequate to provide 0.5 ml of serum, were collected just prior to administration of the first dose, and every 20 minutes thereafter for 24 hours for determination of growth hormone. Specimens were collected in tubes containing no additives, and were maintained at room temperature until clotted. The serum was separated from the whole blood and frozen at −20° C. within one hour of collection.
Growth hormone quantitation of the human serum samples was conducted using luminescence measurements by means of an Immulite® system (Diagnostic Products Corporation, Los Angeles, Calif.). All analyses were performed using a hGH Immulite® kit containing hGH test units (LGH 1), hGH reagent wedge (LGH 2) and hGH adjustors (LGHL and LGHH). These kits were obtained from DPC (Diagnostic Products Corporation, Los Angeles, Calif.). In addition, hGH sample diluent (LGHZ), chemiluminescent substrate module (LSUBX), probe wash module (LPWSZ) and the necessary Immulite® accessories were obtained from DPC. For each new kit, the Immulite® system was calibrated by running two adjuster samples (LGHL and LGHH) obtained from the manufacturer, containing a […] concentration of hGH in equine serum, respectively. […] The resulting luminescence was determined by means of an Immulite® system.

[3] = Clinical study: body composition (total adipose and total lean tissue); format: in vivo, human
Experimental: as §1
(§3) In addition, an extension study was conducted to evaluate the relationship between peak GH concentrations or IGF-I versus surrogate responses such as lipid concentrations and body composition. A sustained release (SR) formulation was also evaluated, either alone or combined with an immediate release (IR) formulation (24-30 patients per group). [16 mg (10 SR, 6 IR) h.s. (h.s. means at bedtime); 16 mg (10 SR, 6 IR) h.s. every third day; 16 mg SR h.s.; and placebo.] The formulations are set forth below.
as §2

[4] = test system: growth hormone; assay: Clinical extension study: growth hormone secretion profile (GH peaks); format: in vivo, human
Experimental: as §3
In addition to this schedule, subjects at selected sites in the extension study were studied during two overnight admissions on the first night of dosing and again on day 28 of dosing. Growth hormone secretion and pharmacokinetic sampling was carried out.
(§4) A follow-up evaluation was made at 1, 2, and 4 weeks. Vital signs were obtained and the skin of the face, trunk and upper extremities was inspected.
In addition, subjects at selected study centers were admitted to an overnight unit on day 28 of dosing. Growth hormone secretion profile, pharmacokinetics, and vital sign determination were carried out.

[5] = Osmotic agent selection based on active compound solubility screening; format: physicochemical; settings: 37 °C, aqueous with cosolvent or surfactant or cyclodextrin
Experimental: The osmogens were screened by preparing a saturated solution (unless otherwise noted) of the candidate osmogen in water at 37° C. for 2 hours, and filtering the undissolved portion as described in Example 5.

[6] = test system: IGF-1; assay: Clinical study in subjects 65-84 years: change from baseline in IGF-1; format: in vivo, human
Experimental: This clinical study was performed in male and female subjects between the ages of 65 and 84 years inclusive, and whose baseline IGF-1 levels were <150 ng/ml.
The study was a double blind, parallel group, placebo-controlled study.
as §1, §3
Study active compound was supplied in blisterpaks, with five tablets to be taken at time of each dosing. Subjects were instructed to take the tablets with one glass of water at bedtime.
Return visits were scheduled at 1, 2, and 4 weeks after baseline. […] The baseline and all subsequent follow-up visits were performed at the same time of day (between approximately 8-11 am).
as §4, §2

[7] = Solubility and osmotic pressure of the active compound (statement); format: physicochemical
[8] = One compartment pharmacokinetic model fitted to observed human plasma concentrations
From the text: A one compartment pharmacokinetic model was constructed using the following equations (I Think, Stella, HPS, Hanover, N.H.): […]
where ba is bioavailability (1.0), Vdist_liter is volume of distribution in units of liters (0.75), ka_hr1 is absorption rate constant in units of reciprocal hr (1.3), and thalf_hr is the plasma concentration vs. time elimination half-life in units of hr (2.5).
These parameters were then fixed to the values noted above for all subsequent simulations.

[9] = first leg, immediate release dosing
[10] = fitted one compartment model, humans

## CN1N=C2CCN(C(=O)[C@@H](COCc3ccccc3)NC(=O)C(C)(C)N)C[C@@]2(Cc2ccccc2)C1=O.O=C(O)C(O)C(O)C(=O)O [Compound A]
[1]
  IGFBP3: increased
[2]; 10 mg bolus, L-tartrate
  GH Tmax: 1 h (3×) and 0.67 h
[2]; 10 mg divided, in h
  GH Tmax: 1
[2]; simulated sustained release of 10 mg compared to bolus
  frequency and amplitude of secondary GH peaks: increased
[3]; extension study, two groups receiving IR formulation
  increases in lean tissue: 0.5-0.6%
[3]; [9]
  adipose tissue (body composition): decreased
  apparent whole body lean mass: increased
[4]; 16 mg (10 SR, 6 IR) every third day vs daily
  GH peak heights, Q 3 day group greater than QD group: 1.52 ng/mL
[4]; group receiving SR alone (16 mg SR h.s.), after 4 weeks
  GH peaks, average: 2 ng/mL
[4]; group receiving SR alone (16 mg SR h.s.), at baseline
  GH peaks, average: less than 4 ng/ml
[4]; groups receiving 6 mg IR (with 10 mg SR), at baseline
  GH peaks, average: ≥ 15 ng/mL
[4]; groups receiving 6 mg IR (with 10 mg SR), by 4 weeks
  GH peaks, average: 4 to 6 ng/mL
[5]; filtrate of osmogen solution in water, fructose solution 250 mg/ml (below saturation), read-out: COMPOUND A Solubility
  solubility at 5 min: < 50 mg/mL
[5]; filtrate of osmogen solution in water, visual screening, read-out: active compound solubility measured in this manner
  solubility at 5 min: > 150 mg/mL
[5]; filtrate of saturated lactose solution in water, saturated lactose solution, approx. 200 mg/ml, read-out: COMPOUND A Solubility
  solubility at 5 min: > 150 mg/mL
[5]; filtrate of saturated mannitol solution in water, saturated mannitol solution, approx. 180 mg/ml, read-out: COMPOUND A Solubility
  solubility at 5 min: > 150 mg/mL
[5]; filtrate of saturated sodium bitartrate solution in water, saturated sodium bitartrate solution, approx. 110 mg/ml, read-out: COMPOUND A Solubility
  solubility at 5 min: > 150 mg/mL
[5]; sorbitol solution in water, 250 mg/ml (below saturation), sorbitol solution 250 mg/ml (below saturation), read-out: COMPOUND A Solubility
  solubility at 5 min: > 150 mg/mL
[5]; xylitol solution in water, 250 mg/ml (below saturation), xylitol solution 250 mg/ml (below saturation), read-out: COMPOUND A Solubility
  solubility at 5 min: < 50 mg/mL
[6]; extension study, 16 mg (10 SR, 6 IR) h.s. every third day
  average rise of IGF-I: approximately 10%
[6]; extension study, each of the 2 groups dosed daily (16 mg (10 SR, 6 IR) h.s.; 16 mg SR h.s.)
  IGF-I: increases
[6]; first leg, both groups administered 9 mg daily (3 mg tid; 3 mg am and 6 mg pm), immediate release, subjects 65-84 years
  increase in IGF-I: approximately 35%
[7]
  osmotic pressure: about 4 atmospheres
[7]; water
  solubility: > 150 mg/mL
[8]; [10]
  absorption rate constant (ka_hr1): 1.3 reciprocal hr
  plasma concentration vs. time elimination half-life (thalf_hr): 2.5 h
  volume of distribution (Vdist_liter): 0.75 L
[8]; fitted to observed plasma concentrations after oral 10, 3 and 0.3 mg doses to humans
  bioavailability (ba): 1.0
